The text below walks through data of PMC10674987, “Sweet Cherry Extract as Permeation Enhancer of Tyrosine Kinase Inhibitors: A Promising Prospective for Future Oral Anticancer Therapies” (Pharmaceuticals, 2023).

System in one series: not given
Assay: not given
The conditions noted are these: human liver microsomes; previously published; cited from earlier work. In general terms: Liver microsomes are a subcellular fraction often used to study metabolism.
On to `CC(Cn1ncc2c(Nc3cccc(O)c3)nc(NCCO)nc21)c1ccccc1` (centres unmarked) [Cpd 4], for which the “Metabolic Stability” value is given as 99.4%.
As for `CC(Cn1ncc2c(Nc3cc(O)ccc3Cl)nc(SCCN3CCOCC3)nc21)c1ccccc1` (centres unmarked) [Cpd 5], the “Metabolic Stability” value is reported as 97.9%.
Consider `CC(Cn1ncc2c(Nc3cc(O)ccc3Cl)nc(NCCO)nc21)c1ccccc1` (centres unmarked) [Cpd 6], for which the “Metabolic Stability” value is 97.9%.

System in the next series: not given
Assay: not given
Also on record: method as in earlier work. The conditions noted are these: in humans; EMA reports; cited from earlier work.
With `Cc1nc(Nc2ncc(C(=O)Nc3c(C)cccc3Cl)s2)cc(N2CCN(CCO)CC2)n1` [Dasatinib, dasatinib, reference compound], the Bioavailability is 15.2%.

System in another series: not listed separately
Put plainly: Cell viability assay (MTT) on Caco-2 cells. The conditions noted are these: human, Caco-2 cells, 10 µM, 2 h + 24 h fresh medium. The format is cell-based, human. The procedure:
(§1) Cells were sub-cultured using a 1× trypsin/EDTA solution and then passed every 3–4 days at appropriate ratios (typically 1:3, 1:6, 1:12). […] After 2 h of treatment, solutions were aspirated from the wells, and the cells were washed with pre-warmed PBS. […] Furthermore, it was mandatory to identify the most suitable drug concentration that would avoid cytotoxic effects on Caco-2 cells (a condition that may bias the permeability study) and that would allow the optimal chromatographic response when analyzing the samples obtained. Therefore, cells were exposed to increasing concentrations of drugs (1–10–100 µM) for 2 h. […] In order to fully reproduce the conditions of the permeability studies and assess the possible induction of irreversible cytotoxic effects by SCE or drugs, cell viability was also checked after a further 24 h of incubation in free medium (2 h + 24 h). Cell viability was assessed as above described.
The viability is the share of living cells, or the viability signal relative to a control. For the compound `Cc1nc(Nc2ncc(C(=O)Nc3c(C)cccc3Cl)s2)cc(N2CCN(CCO)CC2)n1` [Dasatinib, dasatinib, reference compound], the viability at 10 µM lay in the range of 90 to 100%.

The same series, now with this note: human, Caco-2 cells, 100 µM, 2 h + 24 h fresh medium.
On to `Cc1nc(Nc2ncc(C(=O)Nc3c(C)cccc3Cl)s2)cc(N2CCN(CCO)CC2)n1` [Dasatinib, dasatinib, reference compound], for which the viability at 100 µM is 70 to 80%.

For another series, the system named is Caco-2 cells. Briefly: Cell viability assay (MTT) on Caco-2 cells. The format is cell-based, human. The conditions noted are these: 1 µM, 2 h, vs untreated control. The procedure:
as §1
Consider `Cc1nc(Nc2ncc(C(=O)Nc3c(C)cccc3Cl)s2)cc(N2CCN(CCO)CC2)n1` [Dasatinib, dasatinib, reference compound], for which the Cell viability entry is on record as “no significant signs of toxicity”.

System in another series: not given
Assay: not given
Particulars: previously published; cited from earlier work.
Consider `CC(Cn1ncc2c(Nc3cccc(O)c3)nc(NCCO)nc21)c1ccccc1` (centres unmarked) [Cpd 4], for which the “PAMPA Papp” value was “lower than 1 10^−6 cm/s” and the “PAMPA membrane retention (MR %)” value is 1%.
As for `CC(Cn1ncc2c(Nc3cc(O)ccc3Cl)nc(SCCN3CCOCC3)nc21)c1ccccc1` (centres unmarked) [Cpd 5], the “PAMPA Papp” value is reported as “over 10 10^−6 cm/s” and the “PAMPA membrane retention (MR %)” value was 6.6%.
In the case of `CC(Cn1ncc2c(Nc3cc(O)ccc3Cl)nc(NCCO)nc21)c1ccccc1` (centres unmarked) [Cpd 6], the “PAMPA Papp” value is reported as “lower than 1 10^−6 cm/s” and the “PAMPA membrane retention (MR %)” value was 4.0%.

System in another series: not listed separately
Briefly: Bidirectional permeability in Caco-2 cells in absence and presence of SCE. The format is in vitro ADME, human. Particulars: human, Caco-2, +SCE [1 mg/mL]; 10 µM compound; apical to basolateral. Here is the method:
(§2) Caco-2 cells were seeded at a density of 2 × 10^4 on Transwell supports (0.4 µm pore polycarbonate membrane, 6.5 mm) and incubated overnight in a controlled atmosphere of 37 °C and 5% of CO2. The following day, the medium was changed to remove floating cells and fresh pre-warmed DMEM 20% was added (300 µL in the apical compartment and 1200 µL in the basal one). Cells were cultured for approximately 18–21 days in order to ensure that the cellular monolayers differentiated and many transport proteins and brush border hydrolases were expressed. Media were changed every 2–3 days.
(§3) For permeability studies, stock solutions of compounds were prepared by solubilizing 1.0 mg of accurately weighed powder with dimethyl sulfoxide (DMSO) and conserved at −20 °C. Immediately prior to the experiments, working solutions (WS) were prepared by diluting the stock solutions with pre-warmed HBSS to the final concentration of 10 µM. The final concentration of DMSO used never exceeded 0.1% v/v. The assays were performed in both the absorptive (from apical-to-basolateral compartment (A-B)) and the secretory direction (from basolateral-to-apical compartment (B-A)), both in the absence (Free) and presence of sweet cherry extract (+SCE [1 mg/mL]) diluted in HBSS. The final volumes used for the experiment were 300 µL in the apical compartment and 1200 µL in the basolateral one. Plates were incubated at 37 °C and maintained under gentle shaking (500 rpm) to reduce the effect of the unstirred water layer. At selected time points (T0–0.25–0.5–1–2 h-TEND for the A-B studies; T0–2 h–TEND for the B-A studies), samples (200 µL) were collected from the receiving compartments (from the basolateral compartment for the A-B assay; from the apical one for the B-A study) and replaced with the same volume of HBSS. The HPLC-UV/MS method was developed to quantify the amount of drug transferred across the cellular monolayer, and permeability (Papp, 10^−6 cm/s) and efflux ratio (ER) were calculated according to the following equations:Papp = (dQ/dt) × 1/(A × C0)(5) where dQ/dt is the steady-state flux (µmol s^−1), A is the area of the filter (cm^2), and C0 is the initial concentration in the donor compartment (µM). ER = (Papp B-A)/(Papp A-B)(6)
(§4) Chromatographic analyses were carried out using an Agilent 1260 Infinity HPLC-DAD system connected to an Agilent MSD 6130 system (Agilent Technologies, Palo Alto, CA, USA). At room temperature, a Kinetex C18-100 Å column (150 mm 4.6 mm, purchased from Phenomenex, Torrance, CA, USA) with a 5 µm particle size and gradient elution with a binary solution (eluent A: H2O, eluent B: ACN, both acidified with 0.1% v/v formic acid) was for the chromatographic separation. Analyses started with 5% B (from t = 0 to t = 1 min), then increased to 95% (from t = 1 to t = 10 min), then maintained at 95% (from t = 10 to t = 15 min), and finally returned to […] in 1.0 min. The volume injected was 10 µL, and the flow rate 600 µL/min. UV detection was monitored at 254 nm, and spectra were collected in both the positive and negative modes within the scan range of m/z 100–1500.
(In general: Passage across Caco-2 layers is used to estimate intestinal permeability.)
As a reminder, the Papp A→B is how fast a substance crosses the layer from the apical side. Take `CC(Cn1ncc2c(Nc3cccc(O)c3)nc(NCCO)nc21)c1ccccc1` (centres unmarked) [Cpd 4]: the Papp A→B at 2 h, 10 µM stood at 16.9 ± 0.743 ×10⁻⁶ cm/s.
Still for that read-out and setting: with `CC(Cn1ncc2c(Nc3cc(O)ccc3Cl)nc(SCCN3CCOCC3)nc21)c1ccccc1` (centres unmarked) [Cpd 5] the figure was 1.54 ± 0.095 ×10⁻⁶ cm/s; with `CC(Cn1ncc2c(Nc3cc(O)ccc3Cl)nc(NCCO)nc21)c1ccccc1` (centres unmarked) [Cpd 6], 14.9 ± 1.86 ×10⁻⁶ cm/s.
On the same count and under the same terms, with `Cc1nc(Nc2ncc(C(=O)Nc3c(C)cccc3Cl)s2)cc(N2CCN(CCO)CC2)n1` [Dasatinib, dasatinib, reference compound] the figure was 2.41 ± 0.12 ×10⁻⁶ cm/s.

The series is the same for the next values; noted with them: human, Caco-2, +SCE [1 mg/mL]; 10 µM compound; basolateral to apical.
By Papp B→A is commonly meant how fast a substance crosses the layer from the basolateral side. On to `CC(Cn1ncc2c(Nc3cccc(O)c3)nc(NCCO)nc21)c1ccccc1` (centres unmarked) [Cpd 4], for which the Papp B→A at 2 h, 10 µM is 53.3 ± 1.8 ×10⁻⁶ cm/s.
The same measure, in the same setting: with `CC(Cn1ncc2c(Nc3cc(O)ccc3Cl)nc(SCCN3CCOCC3)nc21)c1ccccc1` (centres unmarked) [Cpd 5] the figure was 5.99 ± 0.286 ×10⁻⁶ cm/s.
The same measure, in the same setting: with `CC(Cn1ncc2c(Nc3cc(O)ccc3Cl)nc(NCCO)nc21)c1ccccc1` (centres unmarked) [Cpd 6] the figure was 51.45 ± 0.118 ×10⁻⁶ cm/s; with `Cc1nc(Nc2ncc(C(=O)Nc3c(C)cccc3Cl)s2)cc(N2CCN(CCO)CC2)n1` [Dasatinib, dasatinib, reference compound], 31.1 ± 0.342 ×10⁻⁶ cm/s.

Still in this series, the particulars now being: human, Caco-2, +SCE [1 mg/mL]; 10 µM compound; read-out: Efflux ratio (ER) (Papp B-A/Papp A-B).
For the compound `CC(Cn1ncc2c(Nc3cccc(O)c3)nc(NCCO)nc21)c1ccccc1` (centres unmarked) [Cpd 4], the efflux ratio at 2 h, 10 µM was 3.16 ± 0.245.
On the same count and under the same terms, in the case of `CC(Cn1ncc2c(Nc3cc(O)ccc3Cl)nc(SCCN3CCOCC3)nc21)c1ccccc1` (centres unmarked) [Cpd 5] it was 3.88 ± 0.054.
On the same count and under the same terms, in the case of `CC(Cn1ncc2c(Nc3cc(O)ccc3Cl)nc(NCCO)nc21)c1ccccc1` (centres unmarked) [Cpd 6] it was 3.48 ± 0.445; in that of `Cc1nc(Nc2ncc(C(=O)Nc3c(C)cccc3Cl)s2)cc(N2CCN(CCO)CC2)n1` [Dasatinib, dasatinib, reference compound], 12.9 ± 0.786.

The same series, now with this note: human, Caco-2, Free; 10 µM compound; apical to basolateral.
Regarding `CC(Cn1ncc2c(Nc3cccc(O)c3)nc(NCCO)nc21)c1ccccc1` (centres unmarked) [Cpd 4], the Papp A→B at 2 h, 10 µM was 5.11 ± 0.385 ×10⁻⁶ cm/s.
The same measure, in the same setting: with `CC(Cn1ncc2c(Nc3cc(O)ccc3Cl)nc(SCCN3CCOCC3)nc21)c1ccccc1` (centres unmarked) [Cpd 5] the figure was 1.25 ± 0.122 ×10⁻⁶ cm/s; with `CC(Cn1ncc2c(Nc3cc(O)ccc3Cl)nc(NCCO)nc21)c1ccccc1` (centres unmarked) [Cpd 6], 3.32 ± 0.041 ×10⁻⁶ cm/s; with `Cc1nc(Nc2ncc(C(=O)Nc3c(C)cccc3Cl)s2)cc(N2CCN(CCO)CC2)n1` [Dasatinib, dasatinib, reference compound], 2.02 ± 0.103 ×10⁻⁶ cm/s.

Staying with this series, now noted: human, Caco-2, Free; 10 µM compound; basolateral to apical.
With `CC(Cn1ncc2c(Nc3cccc(O)c3)nc(NCCO)nc21)c1ccccc1` (centres unmarked) [Cpd 4], the Papp B→A at 2 h, 10 µM stood at 34.5 ± 0.817 ×10⁻⁶ cm/s.
Same read-out and setting: in the case of `CC(Cn1ncc2c(Nc3cc(O)ccc3Cl)nc(SCCN3CCOCC3)nc21)c1ccccc1` (centres unmarked) [Cpd 5] it was 8.04 ± 0.183 ×10⁻⁶ cm/s; in that of `CC(Cn1ncc2c(Nc3cc(O)ccc3Cl)nc(NCCO)nc21)c1ccccc1` (centres unmarked) [Cpd 6], 19 ± 2.15 ×10⁻⁶ cm/s; in that of `Cc1nc(Nc2ncc(C(=O)Nc3c(C)cccc3Cl)s2)cc(N2CCN(CCO)CC2)n1` [Dasatinib, dasatinib, reference compound], 36.9 ± 2.95 ×10⁻⁶ cm/s.

The same series, now with this note: human, Caco-2, Free; 10 µM compound; read-out: Efflux ratio (ER) (Papp B-A/Papp A-B).
As to `CC(Cn1ncc2c(Nc3cccc(O)c3)nc(NCCO)nc21)c1ccccc1` (centres unmarked) [Cpd 4], the efflux ratio at 2 h, 10 µM was determined as 6.77 ± 0.351.
Same read-out and setting: with `CC(Cn1ncc2c(Nc3cc(O)ccc3Cl)nc(SCCN3CCOCC3)nc21)c1ccccc1` (centres unmarked) [Cpd 5] the figure was 6.46 ± 0.486; with `CC(Cn1ncc2c(Nc3cc(O)ccc3Cl)nc(NCCO)nc21)c1ccccc1` (centres unmarked) [Cpd 6], 5.71 ± 0.578.
The same measure, in the same setting: with `Cc1nc(Nc2ncc(C(=O)Nc3c(C)cccc3Cl)s2)cc(N2CCN(CCO)CC2)n1` [Dasatinib, dasatinib, reference compound] the figure was 18.2 ± 0.529.

A further series has as its system Caco-2 monolayer. The series is described as above. The format is in vitro ADME, human. The conditions noted are these: +SCE 1 mg/mL vs Free. The procedure:
as §2, §3, §4
Take `CC(Cn1ncc2c(Nc3cccc(O)c3)nc(NCCO)nc21)c1ccccc1` (centres unmarked) [Cpd 4]: the “Change of Papp A-B in presence of SCE vs Free” value (from here on “Change of Papp A-B … vs Free”) is “about three and four times”; the “Change of Papp B-A in presence of SCE vs Free” value is on record as “more interesting implementation”; the “Change of efflux ratio in presence of SCE vs Free” value (“Change of efflux ratio … vs Free” for short) is on record as “almost halved”.
For the compound `CC(Cn1ncc2c(Nc3cc(O)ccc3Cl)nc(SCCN3CCOCC3)nc21)c1ccccc1` (centres unmarked) [Cpd 5], the “Change of Papp A-B … vs Free” value was “only a slight improvement”, the “Change of Papp B-A in presence of SCE vs Free” value was “significant reduction” and the “Change of efflux ratio … vs Free” value is given as “almost halved”.
`CC(Cn1ncc2c(Nc3cc(O)ccc3Cl)nc(NCCO)nc21)c1ccccc1` (centres unmarked) [Cpd 6]: the “Change of Papp A-B … vs Free” value is “about three and four times”; the “Change of Papp B-A in presence of SCE vs Free” value is given as “more interesting implementation”; the “Change of efflux ratio … vs Free” value is given as “almost halved”.
As for `Cc1nc(Nc2ncc(C(=O)Nc3c(C)cccc3Cl)s2)cc(N2CCN(CCO)CC2)n1` [Dasatinib, dasatinib, reference compound], the “Change of Papp A-B … vs Free” value is reported as “slight increase”, the “Change of Papp B-A in presence of SCE vs Free” value is recorded as “did not show relevant changes” and the “Change of efflux ratio … vs Free” value is reported as “reduced”.

The series is the same for the next values; noted with them: Free.
Consider `CC(Cn1ncc2c(Nc3cc(O)ccc3Cl)nc(SCCN3CCOCC3)nc21)c1ccccc1` (centres unmarked) [Cpd 5], for which the “Caco-2 Papp A-B lower than PAMPA Papp” value is approximately 10 fold.
